Results as given in patent publication US8299056B2 (Signal Pharmaceuticals, LLC, priority 2008, dated 2012).
Read-outs that look alike come from different tables or passages of the source.

Target: T1, Syk (Homo sapiens, UniProt P43405)
T1 construct: purchased Carna Biosciences
Test: Syk HTRF assay
Assay type: biochemical
How it was run: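 HTRF kinase assay in HEPES pH 7.6 buffer with MgCl2, DTT and Triton X100; start mix of 87.5 μM ATP and 80 nM biotinylated peptide, 1 h at room temperature. EDTA stop, then Eu-anti-phosphotyrosine/streptavidin-DyLight 647 detection, read as 665/615 nm emission ratio.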

[1] = read-out: Activity Level (Syk HTRF assay IC50)
[2] = activity levels A-D, read-out: Activity Level (IC50 in the Syk HTRF assay)
[3] = IC50 activity level, read-out: Activity Level

Row | IC50 [1] [nM] | IC50 [2] [nM] | Compound | further results
1 | 250 to 500 |  | O=C1NCc2cc(Nc3nc4cccc(-c5ccccc5)n4n3)ccc21 [compound 69, 5-(5-phenyl-[1,2,4]triazolo[1,5-a]pyridin-2-ylamino)isoindolin-1-one] | 
2 |  | 1000 to 10000 | OC1CCN(Cc2cccc3nc(Nc4ccc(C(F)(F)F)cc4)nn23)C1 (stereo in doubt) [Example 335, (R)-1-((2-(4-(trifluoromethyl)phenylamino)-[1,2,4]triazolo[1,5-a]pyridin-5-yl)methyl)pyrrolidin-3-ol] | 
3 |  |  | Cc1cc(Nc2nc3cccc(N[C@H]4CC[C@@H](O)CC4)n3n2)c2c(c1)N(C)C(=O)C2 [Example 554, cis-4-(5-(4-hydroxycyclohexylamino)-[1,2,4]triazolo[1,5-a]pyridin-2-ylamino)-1,6-dimethylindolin-2-one] | IC50 [3]: 500 to 1000 nM
4 |  | 0.005 to 250 | O=C1NCc2cc(Nc3nc4cccc(N[C@H]5CC[C@@H](O)CC5)n4n3)ccc21 [Example 253, cis-5-(5-(4-hydroxycyclohexylamino)-[1,2,4]triazolo[1,5-a]pyridin-2-ylamino)isoindolin-1-one] | 
5 |  | 1000 to 10000 | OCC1CCCN1Cc1cccc2nc(Nc3ccc(C(F)(F)F)cc3)nn12 (stereo in doubt) [Example 272, (R)-(1-((2-(4-(trifluoromethyl)phenylamino)-[1,2,4]triazolo[1,5-a]pyridin-5-yl)methyl)pyrrolidin-2-yl)methanol] | 
6 |  | 250 to 500 | Cc1cc(Nc2nc3cccc(CN4CCNC(=O)C4)n3n2)ccc1F [Example 228, 4-((2-(4-fluoro-3-methylphenylamino)-[1,2,4]triazolo[1,5-a]pyridin-5-yl)methyl)piperazin-2-one] | 
7 | 0.005 to 250 |  | Nc1cccc(-c2cccc3nc(Nc4ccccc4)nn23)c1 [Example 87] | 
8 |  |  | c1cc(N[C@@H]2CCCNC2)n2nc(Nc3ccc4c(c3)CNC4)nc2c1 [Example 449] | IC50 [3]: 0.005 to 250 nM
9 |  | 1000 to 10000 | NC(=O)c1cc(Nc2nc3cccc(N[C@H]4CC[C@@H](O)CC4)n3n2)ccn1 [Example 255, cis-4-(5-(4-hydroxycyclohexylamino)-[1,2,4]triazolo[1,5-a]pyridin-2-ylamino)picolinamide] | 
10 |  | 0.005 to 250 | OC[C@]1(O)CC[C@@H](Nc2cccc3nc(Nc4ccc(C(F)(F)F)cc4)nn23)CC1 [Example 227, cis-1-(hydroxymethyl)-4-(2-(4-(trifluoromethyl)phenylamino)-[1,2,4]triazolo[1,5-a]pyridin-5-ylamino)cyclohexanol] | 
11 | 0.005 to 250 |  | COCc1nc2ccc(Nc3nc4cccc(Cc5ccnc(O)c5)n4n3)cc2[nH]1 [compound 130] | 
12 |  | 1000 to 10000 | Cc1n[nH]c2cc(Nc3nc4cccc(CN5CCN(c6ccc7c(C)n[nH]c7c6)C(=O)C5)n4n3)ccc12 [Example 234, 1-(3-methyl-1H-indazol-6-yl)-4-((2-(3-methyl-1H-indazol-6-ylamino)-[1,2,4]triazolo[1,5-a]pyridin-5-yl)methyl)piperazin-2-one] | 
13 | 0.005 to 250 |  | c1ccc(-c2cccc3nc(Nc4ccc5[nH]ncc5c4)nn23)cc1 [compound 61] | 
14 | 250 to 500 |  | Cc1n[nH]c2cc(Nc3nc4cccc(O[C@@H]5COC[C@@H]5O)n4n3)ccc12 (racemic) [Example 165, (±)-cis-4-(2-(3-methyl-1H-indazol-6-ylamino)-[1,2,4]triazolo[1,5-a]pyridin-5-yloxy)tetrahydrofuran-3-ol] | 
15 |  |  | O[C@H]1CC[C@@H](Nc2cccc3nc(Nc4ccc(-c5nc[nH]n5)cc4)nn23)CC1 [Example 567, cis-4-(2-(4-(1H-1,2,4-triazol-3-yl)phenylamino)-[1,2,4]triazolo[1,5-a]pyrridin-5-ylamino)cyclohexanol] | IC50 [3]: 0.005 to 250 nM
16 |  | 1000 to 10000 | OCC1CCN(c2cccc3nc(Nc4ccc(C(F)(F)F)cc4)nn23)CC1 [Example 346, (1-(2-(4-(trifluoromethyl)phenylamino)-[1,2,4]triazolo[1,5-a]pyridin-5-yl)piperidin-4-yl)methanol] | 
17 |  |  | CC1(C)C(=O)Nc2cc(Nc3nc4cccc(CC5CCOC5)n4n3)ccc21 (single isomer, unassigned; enantiomer 2) [Example 558, 3,3-dimethyl-6-(5-((tetrahydrofuran-3-yl)methyl)-[1,2,4]triazolo[1,5-a]pyridin-2-ylamino)indolin-2-one (enantiomer 2)] | IC50 [3]: 0.005 to 250 nM
18 |  | 0.005 to 250 | CC(C)n1ncc2ccc(Nc3nc4cccc(N[C@H]5CC[C@@H](O)CC5)n4n3)cc21 [Example 243, cis-4-(2-(1-isopropyl-1H-indazol-6-ylamino)-[1,2,4]triazolo[1,5-a]pyridin-5-ylamino)cyclohexanol] | 
19 |  | 0.005 to 250 | CNc1ccc(Nc2nc3cccc(N[C@H]4CC[C@@H](O)CC4)n3n2)cn1 [Example 295, cis-4-(2-(6-(methylamino)pyridin-3-ylamino)-[1,2,4]triazolo[1,5-a]pyridin-5-ylamino)cyclohexanol] | 
20 |  | 1000 to 10000 | NC(=O)c1ccc(Nc2nc3cccc(N[C@H]4CC[C@@H](O)CC4)n3n2)c(F)c1 [Example 340, cis-3-fluoro-4-(5-(4-hydroxycyclohexylamino)-[1,2,4]triazolo[1,5-a]pyridin-2-ylamino)benzamide] | 

Row | IC50 [1] [nM] | IC50 [2] [nM] | Compound | further results
21 |  | 0.005 to 250 | Cn1ncc2ccc(Nc3nc4cccc(N[C@H]5CC[C@@H](O)CC5)n4n3)cc21 [Example 364, cis-4-(2-(1-methyl-1H-indazol-6-ylamino)-[1,2,4]triazolo[1,5-a]pyridin-5-ylamino)cyclohexanol] | 
22 | 250 to 500 |  | NCCNc1cc(Nc2nc3cccc(-c4ccccc4)n3n2)ccn1 [compound 39] | 
23 |  | 1000 to 10000 | CNC(=O)c1ccc(Nc2nc3cccc(N[C@H]4CC[C@H](O)CC4)n3n2)cc1 (stereo in doubt) [Example 387, trans-4-(5-(4-hydroxycyclohexylamino)-[1,2,4]triazolo[1,5-a]pyridin-2-ylamino)-N-methylbenzamide] | 
24 |  |  | Cc1n[nH]c2cc(Nc3nc4cccc(C(F)(F)C5COCCO5)n4n3)ccc12 (stereo not drawn) [Example 563, 5-((1,4-dioxan-2-yl)difluoromethyl)-N-(3-methyl-1H-indazol-6-yl)-[1,2,4]triazolo[1,5-a]pyridin-2-amine] | IC50 [3]: 0.005 to 250 nM
25 | 0.005 to 250 |  | Cc1n[nH]c2cc(Nc3nc4cccc(N(C)CCO)n4n3)ccc12 [Example 190, 2-(methyl(2-(3-methyl-1H-indazol-6-ylamino)-[1,2,4]triazolo[1,5-a]pyridin-5-yl)amino)ethanol] | 
26 | 1000 to 10000 |  | CN1C(=O)Cc2ccc(Nc3nc4cccc(NC5CCOCC5)n4n3)cc21 [compound 119, 1-methyl-6-(5-(tetrahydro-2H-pyran-4-ylamino)-[1,2,4]triazolo[1,5-a]pyridin-2-ylamino)indolin-2-one] | 
27 | 0.005 to 250 |  | O=c1cc(C(O)c2cccc3nc(Nc4ccc(C(F)(F)F)cc4)nn23)nc[nH]1 (stereo not drawn) [Example 193, 6-(hydroxy(2-(4-(trifluoromethyl)phenylamino)-[1,2,4]triazolo[1,5-a]pyridin-5-yl)methyl)pyrimidin-4(3H)-one] | 
28 |  | 500 to 1000 | NC(=O)[C@H]1CC[C@@H](Oc2cccc3nc(Nc4ccc(C(F)(F)F)cc4)nn23)CC1 [Example 344, cis-4-(2-(4-(trifluoromethyl)phenylamino)-[1,2,4]triazolo[1,5-a]pyridin-5-yloxy)cyclohexanecarboxamide] | 
29 |  |  | c1cc(N[C@@H]2CCCNC2)n2nc(Nc3ccc4nn[nH]c4c3)nc2c1 [Example 455, (R)-N^2-(1H-benzo[d][1,2,3]triazol-6-yl)-N^5-(piperidin-3-yl)-[1,2,4]triazolo[1,5-a]pyridine-2,5-diamine] | IC50 [3]: 250 to 500 nM
30 |  | 250 to 500 | Cc1cncc(Nc2nc3cccc(N[C@H]4CC[C@@H](O)CC4)n3n2)c1 [Example 390, cis-4-(2-(5-methylpyridin-3-ylamino)-[1,2,4]triazolo[1,5-a]pyridin-5-ylamino)cyclohexanol] | 
31 | 250 to 500 |  | Cc1n[nH]c2cc(Nc3nc4cccc(N[C@H]5CCOC5)n4n3)ccc12 [Example 182, (S)-N^2-(3-methyl-1H-indazol-6-yl)-N^5-(tetrahydrofuran-3-yl)-[1,2,4]triazolo[1,5-a]pyridin-2,5-diamine] | 
32 | 500 to 1000 |  | NC(=O)c1cccc(Nc2nc3cccc(-c4ccccc4)n3n2)c1 [compound 67, 3-(5-phenyl-[1,2,4]triazolo[1,5-a]pyridin-2-ylamino)benzamide] | 
33 | 0.005 to 250 |  | c1ccc(-c2cccc3nc(Nc4ccc5cn[nH]c5c4)nn23)cc1 [compound 68] | 
34 |  | 1000 to 10000 | CC(C)C1CNC(=O)CN1Cc1cccc2nc(Nc3ccc(C(F)(F)F)cc3)nn12 (racemic) [Example 230, (±)-5-isopropyl-4-((2-(4-(trifluoromethyl)phenylamino)-[1,2,4]triazolo[1,5-a]pyridin-5-yl)methyl)piperazin-2-one] | 
35 |  | 1000 to 10000 | CC1CN(Cc2cccc3nc(Nc4ccc(C(F)(F)F)cc4)nn23)CC(=O)N1 (stereo not drawn) [Example 282, 6-methyl-4-((2-(4-(trifluoromethyl)phenylamino)-[1,2,4]triazolo[1,5-a]pyridin-5-yl)methyl)piperazin-2-one] | 
36 |  | 1000 to 10000 | OC1CCCN(Cc2cccc3nc(Nc4ccc(C(F)(F)F)cc4)nn23)C1 (stereo in doubt) [Example 299, (R)-1-((2-(4-(trifluoromethyl)phenylamino)-[1,2,4]triazolo[1,5-a]pyridin-5-yl)methyl)piperidin-3-ol] | 
37 | 0.005 to 250 |  | Cc1nn(CCO)c2cc(Nc3nc4cccc(N[C@H]5CC[C@@H](O)CC5)n4n3)ccc12 [Example 191, cis-4-(2-(1-(2-hydroxyethyl)-3-methyl-1H-indazol-6-ylamino)-[1,2,4]triazolo[1,5-a]pyridin-5-ylamino)cyclohexanol] | 
38 |  | 0.005 to 250 | Cc1n[nH]c2cc(Nc3nc4cccc(CC5CCOCC5)n4n3)ccc12 [Example 199, N-(3-methyl-1H-indazol-6-yl)-5-((tetrahydro-2H-pyran-4-yl)methyl)-[1,2,4]triazolo[1,5-a]pyridin-2-amine] | 
39 |  | 0.005 to 250 | NC(=O)CNCc1cccc2nc(Nc3ccc(C(F)(F)F)cc3)nn12 [Example 290, 2-((2-(4-(trifluoromethyl)phenylamino)-[1,2,4]triazolo[1,5-a]pyridin-5-yl)methylamino)acetamide] | 
